Data: patent publication US20080027035A1, “Dpp-Iv Inhibitors” (GRAFFINITY PHARMACEUTICALS AG, priority 2003, published 2008)

These molecules were tested against T1, DPP-IV (Homo sapiens, UniProt P27487) (assay: Inhibition of DPP-IV peptidase activity, continuous fluorimetric assay (Gly-Pro-AMC cleavage)). Conditions: 16 μM Gly-Pro-AMC, pH 7.4, 25° C., 1% DMSO.
T1 construct: Soluble human DPP-IV lacking the transmembrane anchor (Gly31-Pro766); Pre-Pro-alpha-mating factor leader (secretion signal) (N, cleaved yes); made in house
Type: biochemical
Description: Inhibition of DPP-IV peptidase activity was monitored with a continuous fluorimetric assay. This assay is based on the cleavage of the substrate Gly-Pro-AMC (Bachem) by DPP-IV, releasing free AMC. The assay is carried out in 96-well microtiterplates. In a total volume of 100 μL, compounds are preincubated with […] employing a buffer containing 10 mM Hepes, 150 mM NaCl, 0.005% Tween 20 (pH 7.4). […] The final concentration of DMSO is 1%. The inhibitory potential of the compounds were determined.
Soluble human DPP-IV lacking the transmembrane anchor (Gly31-Pro766) was expressed in a recombinant YEAST-strain as Pre-Pro-alpha-mating fusion.

T1 sequence (P27487 31-766): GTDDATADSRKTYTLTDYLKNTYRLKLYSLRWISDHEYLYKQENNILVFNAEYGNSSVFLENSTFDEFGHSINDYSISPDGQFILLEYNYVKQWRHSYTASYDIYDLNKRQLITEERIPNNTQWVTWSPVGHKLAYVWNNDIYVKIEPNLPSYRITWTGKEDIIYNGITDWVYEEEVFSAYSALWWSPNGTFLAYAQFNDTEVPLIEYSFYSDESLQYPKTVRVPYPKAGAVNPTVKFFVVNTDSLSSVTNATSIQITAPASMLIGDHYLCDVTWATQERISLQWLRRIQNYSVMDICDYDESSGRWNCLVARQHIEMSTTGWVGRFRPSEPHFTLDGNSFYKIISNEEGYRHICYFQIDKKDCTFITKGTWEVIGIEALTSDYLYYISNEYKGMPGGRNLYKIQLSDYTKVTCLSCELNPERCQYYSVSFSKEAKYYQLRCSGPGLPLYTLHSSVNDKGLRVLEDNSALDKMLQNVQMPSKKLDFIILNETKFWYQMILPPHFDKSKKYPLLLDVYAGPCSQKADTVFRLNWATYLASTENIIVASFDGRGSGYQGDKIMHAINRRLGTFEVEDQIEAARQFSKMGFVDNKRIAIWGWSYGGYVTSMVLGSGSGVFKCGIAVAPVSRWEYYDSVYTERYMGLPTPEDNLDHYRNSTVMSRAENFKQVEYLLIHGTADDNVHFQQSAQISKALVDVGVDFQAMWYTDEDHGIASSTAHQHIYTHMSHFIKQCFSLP

Row | Compound | IC50
1 | N[C@@H](CC(=O)N1CCCC(CNC(=O)c2ccccc2)C1)Cc1ccccc1F (mixture of isomers) [Example 94, N-{1-[(3R)-Amino-4-(2-fluoro-phenyl)-butyryl]-piperidin-3-ylmethyl}-benzamide] | 101 to 1000 nM
2 | N[C@@H](CC(=O)N1CCCC(CO)C1)Cc1ccccc1F (mixture of isomers) [Example 105, 3-Amino-4-(2-fluoro-phenyl)-1-(3-hydroxymethyl-piperidin-1-yl)-butan-1-one] | 1000 to 2000 nM
3 | N[C@@H](CC(=O)N1CCC[C@H]1COCc1ccccc1)Cc1ccccc1F [Example 32, (3R)-Amino-1-[(2S)-benzyloxymethyl-pyrrolidin-1-yl]-4-(2-fluoro-phenyl)-butan-1-one] | 101 to 1000 nM
4 | COC[C@@H]1CCCN1C(=O)C[C@H](N)Cc1ccccc1F [Example 33] | 101 to 1000 nM
5 | N[C@@H](CC(=O)N1CCC[C@H]1CNC(=O)c1ccccc1)Cc1ccc(F)cc1 [Example 44] | 101 to 1000 nM
6 | N#Cc1cccc(C[C@@H](N)CC(=O)N2CCC[C@H]2CNC(=O)c2ccccc2)c1 [Example 47] | 101 to 1000 nM
7 | N[C@@H](CC(=O)N1CCC[C@H]1CNC(=O)c1ccccc1)Cc1ccccc1 [Example 49] | 101 to 1000 nM
8 | N[C@@H](CC(=O)N1CCC[C@H]1CN1CCCC1)Cc1cccc(Cl)c1 [Example 67] | 101 to 1000 nM
9 | N[C@@H](CC(=O)N1CCC[C@H]1CNc1cnccn1)Cc1ccccc1F [Example 69] | 101 to 1000 nM
10 | N[C@@H](CC(=O)N1CCC[C@H]1CNS(=O)(=O)c1ccc(F)cc1)Cc1ccccc1F [Example 84] | < 100 nM
11 | CS(=O)(=O)NC[C@@H]1CCCN1C(=O)C[C@H](N)Cc1ccccc1F [Example 85] | < 100 nM
12 | N[C@@H](CC(=O)N1CCC[C@H]1CNC(=O)Nc1ccccc1)Cc1ccccc1F [Example 86, 1-{1-[(3R)-Amino-4-(2-fluoro-phenyl)-butyryl]-pyrrolidin-(2S)-ylmethyl}-3-phenyl-urea] | < 100 nM
13 | N[C@@H](CC(=O)N1CCCC[C@H]1CNC(=O)c1ccccc1)Cc1ccccc1F [Example 87, N-{1-[(3R)-Amino-4-(2-fluoro-phenyl)-butyryl]-piperidin-(2S)-ylmethyl}-benzamide] | 101 to 1000 nM
14 | N[C@@H](CC(=O)N1CCCC[C@H]1CNS(=O)(=O)c1ccccc1)Cc1ccccc1F [Example 88, N-{1-[(3R)-Amino-4-(2-fluoro-phenyl)-butyryl]-piperidin-(2S)-ylmethyl}-benzenesulfonamide] | 101 to 1000 nM
15 | N[C@@H](CC(=O)N1CCCC(CNS(=O)(=O)c2ccccc2)C1)Cc1ccccc1F (stereo partly shown) [Example 89, N-{1-[3-Amino-4-(2-fluoro-phenyl)-butyryl]-piperidin-3-ylmethyl}-benzenesulfonamide] | 101 to 1000 nM
16 | N[C@@H](CC(=O)N1CC(CNC(=O)c2ccccc2)C1)Cc1ccccc1F [Example 90, N-{1-[(3R)-Amino-4-(2-fluoro-phenyl)-butyryl]-azetidin-3-ylmethyl}-benzamide] | 101 to 1000 nM
17 | N[C@@H](CC(=O)N1CC(CNS(=O)(=O)c2ccccc2)C1)Cc1ccccc1F [Example 91, N-{1-[3-Amino-4-(2-fluoro-phenyl)-butyryl]-azetidin-3-ylmethyl}-benzenesulfonamide] | 101 to 1000 nM
18 | N[C@@H](CC(=O)N1CC(COc2ccccc2)C1)Cc1ccccc1F [Example 92, 3-Amino-4-(2-fluoro-phenyl)-1-(3-phenoxymethyl-azetidin-1-yl)-butan-1-one] | 1000 to 2000 nM
19 | N[C@@H](CC(=O)N1CC(COc2ccccn2)C1)Cc1ccccc1F [Example 93] | 1000 to 2000 nM
20 | N[C@@H](CC(=O)N1CCC[C@H]1CNc1nc(-c2ccccc2)no1)Cc1ccccc1F [Example 100, (3R)-Amino-4-(2-fluorophenyl)-1-{(2S)-[(3-phenyl-[1,2,4]oxadiazol-5-ylamino)-methyl]-pyrrolidin-1-yl}butan-1-one] | 101 to 1000 nM
21 | N[C@@H](CC(=O)N1CCC[C@H]1CNc1nc(-c2ccccn2)no1)Cc1ccccc1F [Example 101, (3R)-Amino-4-(2-fluorophenyl)-1-{(2 S)-[(3-pyridin-2-yl-[1,2,4]oxadiazol-5-ylamino)-methyl]-pyrrolidin-1-yl}-butan-1-one] | < 100 nM
22 | N[C@@H](CC(=O)N1CCC[C@H]1CNc1nc(-c2cccc(Cl)c2)no1)Cc1ccccc1F [Example 102] | < 100 nM
23 | N[C@@H](CC(=O)N1CCC[C@H]1CNc1nc(-c2cccc(F)c2)no1)Cc1ccccc1F [Example 103, (3R)-Amino-4-(2-fluorophenyl)-1-((2S)-{[3-(3-fluorophenyl)-[1,2,4]oxadiazol-5-ylamino]-methyl}-pyrrolidin-1-yl)-butan-1-one] | 1000 to 2000 nM
24 | CS(=O)(=O)c1ccc(-c2noc(NC[C@@H]3CCCN3C(=O)C[C@H](N)Cc3ccccc3F)n2)cc1 [Example 104, (3R)-Amino-4-(2-fluorophenyl)-1-((2S)-{[3-(4-methanesulphonylphenyl)-[1,2,4]oxadiazol-5-ylamino]-methyl}-pyrrolidin-1-yl)-butan-1-one] | < 100 nM

Second part, the molecule after the results:

Row | IC50 | Compound
25 | < 100 nM | N#Cc1ccc(OC[C@@H]2CCCN2C(=O)C[C@H](N)Cc2ccccc2F)cc1 [Example 34]
26 | < 100 nM | N[C@@H](CC(=O)N1CCC[C@H]1COc1ccccc1)Cc1ccccc1F [Example 35]
27 | < 100 nM | N#Cc1cccc(OC[C@@H]2CCCN2C(=O)C[C@H](N)Cc2ccccc2F)c1 [Example 36]
28 | < 100 nM | N#Cc1ccccc1OC[C@@H]1CCCN1C(=O)C[C@H](N)Cc1ccccc1F [Example 37]
29 | < 100 nM | N[C@@H](CC(=O)N1CCC[C@H]1COc1ccc(F)cc1)Cc1ccccc1F [Example 38]
30 | < 100 nM | N[C@@H](CC(=O)N1CCC[C@H]1COc1ccccn1)Cc1ccccc1F [Example 39]
31 | < 100 nM | N[C@@H](CC(=O)N1CCC[C@H]1COc1cccc(F)c1)Cc1ccccc1F [Example 40]
32 | < 100 nM | N[C@@H](CC(=O)N1CCC[C@H]1COc1cccc(F)c1)Cc1cccc(Cl)c1 [Example 41]
33 | < 100 nM | N[C@@H](CC(=O)N1CCC[C@H]1CNC(=O)c1ccccc1)Cc1cccc(Cl)c1 [Example 45]
34 | < 100 nM | N[C@@H](CC(=O)N1CCC[C@H]1CNC(=O)c1ccccc1)Cc1cccc(F)c1 [Example 46]
35 | < 100 nM | N[C@@H](CC(=O)N1CCC[C@H]1CNC(=O)c1ccccc1)Cc1ccccc1Cl [Example 48]
36 | < 100 nM | N[C@@H](CC(=O)N1CCC[C@H]1CNC(=O)c1ccccc1)Cc1ccc(F)c(F)c1 [Example 50]
37 | < 100 nM | COc1cccc(C(=O)NC[C@@H]2CCCN2C(=O)C[C@H](N)Cc2ccccc2F)c1 [Example 54, N-{1-[3-Amino-4-(2-fluoro-phenyl)-butyryl]-pyrrolidin-2-ylmethyl}-3-methoxy-benzamide]
38 | < 100 nM | N[C@@H](CC(=O)N1CCC[C@H]1CNC(=O)c1ccccc1F)Cc1ccccc1F [Example 55]
39 | < 100 nM | N[C@@H](CC(=O)N1CCC[C@H]1CNC(=O)c1cccc(F)c1)Cc1ccccc1F [Example 56]
40 | < 100 nM | N[C@@H](CC(=O)N1CCC[C@H]1CNC(=O)c1ccc(F)cc1)Cc1ccccc1F [Example 57]
41 | < 100 nM | N[C@@H](CC(=O)N1CCC[C@H]1CNC(=O)c1cccnc1)Cc1ccccc1F [Example 59]
42 | < 100 nM | N[C@@H](CC(=O)N1CCC[C@H]1CNC(=O)c1ccncc1)Cc1ccccc1F [Example 60]
43 | < 100 nM | CS(=O)(=O)c1ccc(C(=O)NC[C@@H]2CCCN2C(=O)C[C@H](N)Cc2ccccc2F)cc1 [Example 61]
44 | < 100 nM | CS(=O)(=O)c1ccccc1C(=O)NC[C@@H]1CCCN1C(=O)C[C@H](N)Cc1ccccc1F [Example 62]
45 | < 100 nM | N[C@@H](CC(=O)N1CCC[C@H]1CNc1ccccc1)Cc1ccccc1F [Example 66, (3R)-Amino-4-(2-fluoro-phenyl)-1-[(2S)-phenylaminomethyl-pyrrolidin-1-yl]-butan-1-one]
46 | < 100 nM | N#Cc1ccc(NC[C@@H]2CCCN2C(=O)C[C@H](N)Cc2ccccc2F)nc1 [Example 68, 6-({1-[3-Amino-4-(2-fluoro-phenyl)-butyryl]-pyrrolidin-2-ylmethyl}-amino)-nicotinonitrile]
47 | < 100 nM | COc1ccc(S(=O)(=O)NC[C@@H]2CCCN2C(=O)C[C@H](N)Cc2ccccc2F)cc1OC [Example 78, N-{1-[3-Amino-4-(2-fluoro-phenyl)-butyryl]-pyrrolidin-2-ylmethyl}-3,4-dimethoxy-benzenesulfonamide]
48 | < 100 nM | N[C@@H](CC(=O)N1CCC[C@H]1CNS(=O)(=O)c1cccc(F)c1)Cc1ccccc1F [Example 79]
49 | < 100 nM | COc1ccc(S(=O)(=O)NC[C@@H]2CCCN2C(=O)C[C@H](N)Cc2ccccc2F)cc1 [Example 80]
50 | < 100 nM | N[C@@H](CC(=O)N1CCC[C@H]1CNS(=O)(=O)c1ccc(Cl)cc1)Cc1ccccc1F [Example 81]
51 | < 100 nM | N[C@@H](CC(=O)N1CCC[C@H]1CNS(=O)(=O)c1cc(Cl)ccc1Cl)Cc1ccccc1F [Example 82]
52 | < 100 nM | N[C@@H](CC(=O)N1CCC[C@H]1CNS(=O)(=O)c1ccccc1F)Cc1ccccc1F [Example 83]
